US11697648B2, “Fused pyrimidine pyridinone compounds as JAK inhibitors” (THERAVANCE BIOPHARMA R&D IP, LLC, priority 2019, dated 2023)

Legend:
JAK1 = JAK1 (Homo sapiens (Human), UniProt P23458); test: Biochemical JAK1 kinase assay (LanthaScreen)
Method in brief: (§1)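 GST-JAK + GFP-STAT1 peptide, HEPES pH 7.5/MgCl2/EGTA/Brij-35 buffer; cpd preincubation 1 h RT; ATP start, 1 h RT; stop with 10 mM EDTA + 2 nM Tb-anti-pSTAT1; TR-FRET 520/495. 4-parameter IC50 → pKi (Cheng-Prusoff).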

JAK2 = JAK2 (Homo sapiens (Human), UniProt O60674); test: Biochemical JAK2 kinase assay (LanthaScreen)
Method in brief: as §1

JAK3 = JAK3 (Homo sapiens (Human), UniProt P52333); test: Biochemical JAK3 kinase assay (LanthaScreen); conditions: for JAK3 (pKi)-JAK1 (pKi): selectivity JAK3 over JAK1, difference of pKi
Method in brief: as §1

Tyk2 = Tyk2 (Homo sapiens (Human), UniProt P29597); test: Biochemical Tyk2 kinase assay (LanthaScreen)
Method in brief: as §1

[1] = system: IL-2 stimulated STAT5 phosphorylation in Tall-1 human T cell line (JAK3); test: Cellular JAK3 potency assay: inhibition of IL-2 stimulated pSTAT5 in Tall-1 T cells; type: cell-based; conditions: IL-2 stimulated pSTAT5, Tall-1 T cells
Method in brief: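 AlphaLISA SureFire Ultra measures STAT5 Tyr694/699 phosphorylation in lysed Tall-1 human T cells. Cells were exposed to compound for 1 h at 37 °C before a 30 min IL-2 challenge (300 ng/ml final). Values are pIC50 means with standard deviation from signal-versus-concentration curves.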

Caco-2 cell monolayers = test: Caco-2 permeation assay; type: in vitro ADME; conditions: 5 μM, A-B direction, with Verapamil (25 μM)
Method in brief: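 Passive A-to-B permeability with P-gp inhibited by verapamil (25 μM); compound at 5 μM, n=2. Both compartments sampled at t0 and t120 and quantified by LC-MS/MS, giving apparent permeability in cm/sec from flux, area and concentration.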

[2] = Colon and plasma mouse pharmacokinetics; type: in vivo; conditions: mouse, colon tissue / plasma; male Balb/c mice, 10 mg/kg PO; ratio of the colon AUC to the plasma AUC
Experimental: Assay 5: Colon and Plasma Mouse Pharmacokinetics
To 6 male Balb/c mice was administered 10 mg/kg of compound in 1% HPMC+0.1% Tween-80 by PO administration. At 0.5, 2 and 6 hours after dose administration, animals were anesthetized, and terminal blood samples were collected by cardiac puncture, followed by collection of colon contents and colon tissue.
Blood samples were collected into K2EDTA and stored on wet ice until processed to plasma by centrifugation (12000 rpm at 4° C.). Plasma samples were transferred to cluster tubes and placed on dry ice prior to freezer storage. The colon contents from each animal were collected at each terminal blood collection time point. The colon tissues were flushed with saline and patted dry. The colon and colon content tissues were homogenized using sterile water containing 0.1% formic acid 9:1 (water:tissue, v/w). The homogenized tissues and colon contents were transferred to cluster tubes and placed on dry ice prior to freezer storage. All samples were analyzed using LC/MS/MS against analytical standards.
The composite pharmacokinetic parameters of the compounds were determined by non-compartmental analysis using Phoenix WinNonlin Version 6 (Certara, St. Louis, Mo.) and using mean values from 2 animals/time point. For plasma concentrations below the quantification limit (BQL), the lowest concentration measurable or the BLOQ (below limit of quantification) was used.
A colon to plasma ratio was determined as the ratio of the colon AUC to the plasma AUC.

Chain of Tyk2 (P29597 whole entry): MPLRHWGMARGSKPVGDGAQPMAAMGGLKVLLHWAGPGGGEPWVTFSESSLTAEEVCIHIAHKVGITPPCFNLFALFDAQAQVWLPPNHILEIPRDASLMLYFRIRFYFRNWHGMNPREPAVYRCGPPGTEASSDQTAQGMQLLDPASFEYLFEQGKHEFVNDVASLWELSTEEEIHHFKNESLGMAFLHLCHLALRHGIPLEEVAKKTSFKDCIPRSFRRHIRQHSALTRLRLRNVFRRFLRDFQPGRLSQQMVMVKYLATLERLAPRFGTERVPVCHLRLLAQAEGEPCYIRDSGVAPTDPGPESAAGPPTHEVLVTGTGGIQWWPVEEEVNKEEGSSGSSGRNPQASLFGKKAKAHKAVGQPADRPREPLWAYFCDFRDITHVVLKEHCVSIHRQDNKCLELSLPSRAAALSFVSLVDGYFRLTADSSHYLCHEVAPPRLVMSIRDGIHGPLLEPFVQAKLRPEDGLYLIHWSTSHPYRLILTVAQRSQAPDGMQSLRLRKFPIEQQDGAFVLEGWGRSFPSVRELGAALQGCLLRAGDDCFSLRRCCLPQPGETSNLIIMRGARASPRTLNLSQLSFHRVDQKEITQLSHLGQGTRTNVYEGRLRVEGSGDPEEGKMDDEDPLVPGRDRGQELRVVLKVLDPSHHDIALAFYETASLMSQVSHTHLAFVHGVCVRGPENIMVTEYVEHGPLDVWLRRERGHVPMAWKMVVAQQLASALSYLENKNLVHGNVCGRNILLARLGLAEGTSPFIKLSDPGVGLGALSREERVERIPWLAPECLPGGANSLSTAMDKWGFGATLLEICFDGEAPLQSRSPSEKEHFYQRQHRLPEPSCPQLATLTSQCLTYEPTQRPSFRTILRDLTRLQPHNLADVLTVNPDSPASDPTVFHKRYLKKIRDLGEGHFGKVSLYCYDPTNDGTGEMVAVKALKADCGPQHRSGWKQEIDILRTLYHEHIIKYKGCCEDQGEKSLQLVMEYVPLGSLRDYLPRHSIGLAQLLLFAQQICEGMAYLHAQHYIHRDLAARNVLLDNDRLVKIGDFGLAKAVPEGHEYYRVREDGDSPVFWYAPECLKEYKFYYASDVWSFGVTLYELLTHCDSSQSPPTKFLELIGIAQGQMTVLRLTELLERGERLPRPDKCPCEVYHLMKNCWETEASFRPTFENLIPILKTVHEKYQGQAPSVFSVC
Chain of JAK1 (P23458 whole entry): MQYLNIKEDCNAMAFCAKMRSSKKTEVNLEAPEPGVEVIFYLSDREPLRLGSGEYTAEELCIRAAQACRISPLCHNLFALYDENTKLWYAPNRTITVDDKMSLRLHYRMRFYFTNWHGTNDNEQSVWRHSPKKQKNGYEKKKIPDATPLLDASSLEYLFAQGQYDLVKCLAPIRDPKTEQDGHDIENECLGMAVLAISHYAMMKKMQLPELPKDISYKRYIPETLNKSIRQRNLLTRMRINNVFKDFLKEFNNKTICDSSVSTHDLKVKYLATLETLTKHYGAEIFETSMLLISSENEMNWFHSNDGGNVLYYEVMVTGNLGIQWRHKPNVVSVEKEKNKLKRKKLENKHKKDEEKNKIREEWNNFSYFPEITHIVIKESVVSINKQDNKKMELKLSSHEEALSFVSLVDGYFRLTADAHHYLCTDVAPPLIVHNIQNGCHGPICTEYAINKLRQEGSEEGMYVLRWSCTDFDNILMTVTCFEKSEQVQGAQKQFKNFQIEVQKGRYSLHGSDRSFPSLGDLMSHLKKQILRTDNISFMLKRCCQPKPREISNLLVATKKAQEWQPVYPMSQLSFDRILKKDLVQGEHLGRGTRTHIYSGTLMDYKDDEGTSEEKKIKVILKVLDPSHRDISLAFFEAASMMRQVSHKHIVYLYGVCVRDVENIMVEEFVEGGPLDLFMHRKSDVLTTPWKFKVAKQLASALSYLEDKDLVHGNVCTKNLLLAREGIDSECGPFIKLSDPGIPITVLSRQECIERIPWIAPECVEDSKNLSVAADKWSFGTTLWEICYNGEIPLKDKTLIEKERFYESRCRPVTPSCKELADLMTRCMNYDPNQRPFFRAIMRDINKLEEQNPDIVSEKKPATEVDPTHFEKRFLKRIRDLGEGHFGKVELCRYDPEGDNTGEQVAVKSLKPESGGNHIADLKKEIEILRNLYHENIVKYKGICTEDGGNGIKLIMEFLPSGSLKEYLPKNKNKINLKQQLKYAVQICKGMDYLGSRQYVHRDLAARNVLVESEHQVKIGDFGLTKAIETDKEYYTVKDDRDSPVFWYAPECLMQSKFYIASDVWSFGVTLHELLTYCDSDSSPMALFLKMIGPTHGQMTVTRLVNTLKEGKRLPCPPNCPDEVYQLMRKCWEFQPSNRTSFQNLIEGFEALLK
Chain of JAK2 (O60674 whole entry): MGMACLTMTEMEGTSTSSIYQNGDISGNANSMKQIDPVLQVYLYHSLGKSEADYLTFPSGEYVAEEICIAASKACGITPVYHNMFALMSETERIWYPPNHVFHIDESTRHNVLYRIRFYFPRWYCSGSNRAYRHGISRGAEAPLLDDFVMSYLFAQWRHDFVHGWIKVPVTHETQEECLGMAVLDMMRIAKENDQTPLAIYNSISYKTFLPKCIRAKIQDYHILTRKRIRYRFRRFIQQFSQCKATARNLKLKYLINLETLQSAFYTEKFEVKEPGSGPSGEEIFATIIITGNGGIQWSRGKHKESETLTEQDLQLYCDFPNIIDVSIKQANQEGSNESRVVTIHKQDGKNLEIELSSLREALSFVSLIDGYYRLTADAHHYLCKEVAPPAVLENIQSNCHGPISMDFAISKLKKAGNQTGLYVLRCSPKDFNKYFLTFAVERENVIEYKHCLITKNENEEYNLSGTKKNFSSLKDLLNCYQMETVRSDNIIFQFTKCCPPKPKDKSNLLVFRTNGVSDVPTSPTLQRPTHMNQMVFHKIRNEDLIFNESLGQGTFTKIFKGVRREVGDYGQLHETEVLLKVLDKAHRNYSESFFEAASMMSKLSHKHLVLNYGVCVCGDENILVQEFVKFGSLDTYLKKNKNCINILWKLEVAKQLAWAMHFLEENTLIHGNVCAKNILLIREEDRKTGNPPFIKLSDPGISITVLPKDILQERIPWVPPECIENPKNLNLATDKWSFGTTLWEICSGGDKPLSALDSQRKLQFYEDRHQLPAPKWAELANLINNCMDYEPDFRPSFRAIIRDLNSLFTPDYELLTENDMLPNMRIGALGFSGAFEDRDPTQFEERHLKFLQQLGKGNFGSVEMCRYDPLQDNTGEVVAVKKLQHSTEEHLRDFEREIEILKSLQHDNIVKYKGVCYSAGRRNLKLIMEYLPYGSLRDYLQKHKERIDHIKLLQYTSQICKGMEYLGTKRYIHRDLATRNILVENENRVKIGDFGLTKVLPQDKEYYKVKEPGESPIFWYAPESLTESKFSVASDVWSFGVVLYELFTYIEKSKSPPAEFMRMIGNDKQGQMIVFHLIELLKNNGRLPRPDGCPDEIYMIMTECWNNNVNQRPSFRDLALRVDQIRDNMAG
Chain of JAK3 (P52333 whole entry): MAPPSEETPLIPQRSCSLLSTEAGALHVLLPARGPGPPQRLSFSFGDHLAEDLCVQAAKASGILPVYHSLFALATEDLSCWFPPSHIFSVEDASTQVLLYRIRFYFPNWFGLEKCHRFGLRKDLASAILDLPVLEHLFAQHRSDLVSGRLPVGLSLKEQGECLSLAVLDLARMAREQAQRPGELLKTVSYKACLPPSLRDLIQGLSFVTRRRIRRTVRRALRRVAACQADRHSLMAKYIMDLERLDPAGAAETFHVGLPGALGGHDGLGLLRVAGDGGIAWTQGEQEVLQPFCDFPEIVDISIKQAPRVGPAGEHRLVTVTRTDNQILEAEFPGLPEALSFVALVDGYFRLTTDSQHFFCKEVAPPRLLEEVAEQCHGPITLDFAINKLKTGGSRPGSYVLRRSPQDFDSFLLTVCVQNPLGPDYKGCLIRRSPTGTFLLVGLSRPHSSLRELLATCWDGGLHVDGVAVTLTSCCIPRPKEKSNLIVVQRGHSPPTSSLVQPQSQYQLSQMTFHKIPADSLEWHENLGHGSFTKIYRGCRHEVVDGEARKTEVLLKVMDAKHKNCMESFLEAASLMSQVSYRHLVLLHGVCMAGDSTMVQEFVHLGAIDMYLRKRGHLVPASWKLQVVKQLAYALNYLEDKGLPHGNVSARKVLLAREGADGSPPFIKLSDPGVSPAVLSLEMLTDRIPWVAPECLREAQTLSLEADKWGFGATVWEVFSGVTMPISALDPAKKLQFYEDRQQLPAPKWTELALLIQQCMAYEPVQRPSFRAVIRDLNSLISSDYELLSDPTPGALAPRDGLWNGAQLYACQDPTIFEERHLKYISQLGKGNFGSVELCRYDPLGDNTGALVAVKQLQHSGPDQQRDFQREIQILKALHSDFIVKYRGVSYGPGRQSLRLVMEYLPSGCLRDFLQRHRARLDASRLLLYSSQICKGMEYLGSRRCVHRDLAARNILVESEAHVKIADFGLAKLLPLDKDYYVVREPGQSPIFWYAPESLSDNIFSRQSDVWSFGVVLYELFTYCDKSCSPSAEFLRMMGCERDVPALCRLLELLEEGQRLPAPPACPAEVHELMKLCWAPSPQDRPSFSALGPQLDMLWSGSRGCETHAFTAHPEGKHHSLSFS

Row | Compound | JAK 1 (pKi) (JAK1) | JAK 2 (pKi) (JAK2) | JAK 3 (pKi) (JAK3) | JAK3 (pKi)-JAK1 (pKi) (JAK3) | Tyk 2 (pKi) (Tyk2) | Tall-1 (pIC50) [1] | Caco Kp (Caco-2 cell monolayers) | Kp [2]
1 | C=CC(=O)N1CCN(CCn2c(=O)ccc3cnc(Nc4ccc(N5CCN(C(=O)N(C)C)CC5)cc4)nc32)[C@@H](C)C1 [Example 174] | E (E represents a pKi value of 7 or below (Ki of 100 nM or above)) | E (E represents a pKi value of 7 or below (Ki of 100 nM or above)) | B (B represents pKi value between 9 and 10 (Ki between 1 nM and 0.1 nM)) | A (A represents a value of 3 or above) | E (E represents a pKi value of 7 or below (Ki of 100 nM or above)) | B (B represents a pC50 value between 6.7 (included) and 7.5 (IC50 between 200 nM and 32 nM)) | B (B represents a value between 5×10^−6 and 10×10^−6 cm/sec) | > 14
2 | C=CC(=O)N1CC(CCn2c(=O)ccc3cnc(Nc4ccc(C5=CCN(C)CC5)cc4)nc32)C1 [Example 74] | E (E represents a pKi value of 7 or below (Ki of 100 nM or above)) | E (E represents a pKi value of 7 or below (Ki of 100 nM or above)) | B (B represents pKi value between 9 and 10 (Ki between 1 nM and 0.1 nM)) | A (A represents a value of 3 or above) | E (E represents a pKi value of 7 or below (Ki of 100 nM or above)) | B (B represents a pC50 value between 6.7 (included) and 7.5 (IC50 between 200 nM and 32 nM)) | A (A represents a value below 5×10^−6 cm/sec) | > 100
3 | C=CC(=O)N1CC(CCn2c(=O)ccc3cnc(Nc4cccc(CN5CCN(C(=O)CCSC)CC5)c4)nc32)C1 [Example 110] | E (E represents a pKi value of 7 or below (Ki of 100 nM or above)) | E (E represents a pKi value of 7 or below (Ki of 100 nM or above)) | A (A represents a pKi value≥10 (Ki≤0.1 nM)) | A (A represents a value of 3 or above) | E (E represents a pKi value of 7 or below (Ki of 100 nM or above)) | A (A represents a pIC50 value≥7.5 (IC50≤32 nM)) | B (B represents a value between 5×10^−6 and 10×10^−6 cm/sec) | > 1000
4 | C=CC(=O)N1CC(CCn2c(=O)ccc3cnc(Nc4cnn(CCOC(C)C)c4)nc32)C1 [Example 24] | E (E represents a pKi value of 7 or below (Ki of 100 nM or above)) | E (E represents a pKi value of 7 or below (Ki of 100 nM or above)) | B (B represents pKi value between 9 and 10 (Ki between 1 nM and 0.1 nM)) | A (A represents a value of 3 or above) | E (E represents a pKi value of 7 or below (Ki of 100 nM or above)) | B (B represents a pC50 value between 6.7 (included) and 7.5 (IC50 between 200 nM and 32 nM)) | B (B represents a value between 5×10^−6 and 10×10^−6 cm/sec) | > 100
5 | C=CC(=O)N1CC(CCn2c(=O)ccc3cnc(Nc4cccc(CN5CCN(S(C)(=O)=O)CC5)c4)nc32)C1 [Example 6, 8-(2-(1-acryloylazetidin-3-yl)ethyl)-2-((3-((4-(methylsulfonyl)piperazin-1-yl)methyl)phenyl)amino)pyrido[2,3-d]pyrimidin-7(8H)-one] | E (E represents a pKi value of 7 or below (Ki of 100 nM or above)) | E (E represents a pKi value of 7 or below (Ki of 100 nM or above)) | B (B represents pKi value between 9 and 10 (Ki between 1 nM and 0.1 nM)) | A (A represents a value of 3 or above) | E (E represents a pKi value of 7 or below (Ki of 100 nM or above)) | B (B represents a pC50 value between 6.7 (included) and 7.5 (IC50 between 200 nM and 32 nM)) | A (A represents a value below 5×10^−6 cm/sec) | > 100
6 | C=CC(=O)N1CC(CCn2c(=O)ccc3cnc(Nc4ccc(N5CCN(S(=O)(=O)CCOC)CC5)cc4)nc32)C1 [Example 76] | E (E represents a pKi value of 7 or below (Ki of 100 nM or above)) | E (E represents a pKi value of 7 or below (Ki of 100 nM or above)) | B (B represents pKi value between 9 and 10 (Ki between 1 nM and 0.1 nM)) | A (A represents a value of 3 or above) | E (E represents a pKi value of 7 or below (Ki of 100 nM or above)) | B (B represents a pC50 value between 6.7 (included) and 7.5 (IC50 between 200 nM and 32 nM)) | B (B represents a value between 5×10^−6 and 10×10^−6 cm/sec) | > 14
7 | C=CC(=O)N1CCN(CCn2c(=O)ccc3cnc(Nc4ccc(N5CCN(C(=O)CSC)CC5)cc4)nc32)[C@@H](C)C1 [Example 173] | E (E represents a pKi value of 7 or below (Ki of 100 nM or above)) | E (E represents a pKi value of 7 or below (Ki of 100 nM or above)) | B (B represents pKi value between 9 and 10 (Ki between 1 nM and 0.1 nM)) | A (A represents a value of 3 or above) | E (E represents a pKi value of 7 or below (Ki of 100 nM or above)) | B (B represents a pC50 value between 6.7 (included) and 7.5 (IC50 between 200 nM and 32 nM)) | A (A represents a value below 5×10^−6 cm/sec) | > 100
8 | C=CC(=O)N1CC(CCn2c(=O)ccc3cnc(Nc4ccc(N5CCN(C(=O)N(C)C)CC5)cc4)nc32)C1 [Example 92] | E (E represents a pKi value of 7 or below (Ki of 100 nM or above)) | E (E represents a pKi value of 7 or below (Ki of 100 nM or above)) | B (B represents pKi value between 9 and 10 (Ki between 1 nM and 0.1 nM)) | A (A represents a value of 3 or above) | E (E represents a pKi value of 7 or below (Ki of 100 nM or above)) | B (B represents a pC50 value between 6.7 (included) and 7.5 (IC50 between 200 nM and 32 nM)) | A (A represents a value below 5×10^−6 cm/sec) | > 100
9 | C=CC(=O)N1CC(CCn2c(=O)ccc3cnc(Nc4ccc(N5CCN(S(=O)(=O)C6COC6)CC5)cc4)nc32)C1 [Example 102] | E (E represents a pKi value of 7 or below (Ki of 100 nM or above)) | E (E represents a pKi value of 7 or below (Ki of 100 nM or above)) | A (A represents a pKi value≥10 (Ki≤0.1 nM)) | A (A represents a value of 3 or above) | E (E represents a pKi value of 7 or below (Ki of 100 nM or above)) | B (B represents a pC50 value between 6.7 (included) and 7.5 (IC50 between 200 nM and 32 nM)) | A (A represents a value below 5×10^−6 cm/sec) | > 1000
10 | C=CC(=O)N1CC(CCn2c(=O)ccc3cnc(Nc4cccc(CN5CCN(C(=O)COC)CC5)c4)nc32)C1 [Example 112] | E (E represents a pKi value of 7 or below (Ki of 100 nM or above)) | E (E represents a pKi value of 7 or below (Ki of 100 nM or above)) | A (A represents a pKi value≥10 (Ki≤0.1 nM)) | A (A represents a value of 3 or above) | E (E represents a pKi value of 7 or below (Ki of 100 nM or above)) | B (B represents a pC50 value between 6.7 (included) and 7.5 (IC50 between 200 nM and 32 nM)) | A (A represents a value below 5×10^−6 cm/sec) | > 100
11 | C=CC(=O)N1CCN(CCn2c(=O)ccc3cnc(Nc4ccc(N5CCN(C(=O)CCSC)CC5)cc4)nc32)[C@@H](C)C1 [Example 171] | E (E represents a pKi value of 7 or below (Ki of 100 nM or above)) | E (E represents a pKi value of 7 or below (Ki of 100 nM or above)) | A (A represents a pKi value≥10 (Ki≤0.1 nM)) | A (A represents a value of 3 or above) | E (E represents a pKi value of 7 or below (Ki of 100 nM or above)) | A (A represents a pIC50 value≥7.5 (IC50≤32 nM)) | B (B represents a value between 5×10^−6 and 10×10^−6 cm/sec) | > 1000
